Among the test systems are LXFL 529 NSCLC; HOP-18 NSCLC; XF 498 CNS; DMS 273 small cell lung; KM20L2 colon; RXF-631 renal; M19-MEL melanoma; DMS 114 small cell lung; MDA-N.
Experiment in all cases: growth of human tumour cells (NCI), 48 h

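Values below derive from 48-hour exposures of cells grown in 96-well plates, with endpoints linearly interpolated between the two concentrations bracketing the appropriate inhibition level. GI50 is the concentration that inhibits growth by half. The concentration for full growth arrest is given as TGI.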 Where only a bound is given, the exact number is not on record here.

Consider `COC(=O)/C=C/C1C(C(=O)OC)C2(C(=O)OC)CCC1(C(=O)OC)N2` (stereo not drawn), for which the TGI in the test on LXFL 529 NSCLC, in the test on HOP-18 NSCLC, in the test on XF 498 CNS, with DMS 273 small cell lung, with KM20L2 colon and in the test with RXF-631 renal was more than 100 µM in each case. The molecule also displayed a TGI with M19-MEL melanoma of more than 100 µM.
`O=C(Nc1ccc([N+](=O)[O-])cc1)C1C(=O)C(=O)N(c2ccc([N+](=O)[O-])cc2)C1=O` (stereo not drawn): the TGI was more than 100 µM in the test with LXFL 529 NSCLC; more than 100 µM in the test with HOP-18 NSCLC; 35.8 µM in the test on DMS 114 small cell lung; more than 100 µM with DMS 273 small cell lung; more than 100 µM in the test on KM20L2 colon; more than 100 µM in the test on RXF-631 renal.
For `O=C1CSC(Cc2nc3ccccc3[nH]2)=N1`, the TGI with LXFL 529 NSCLC was more than 53.8 µM; in the test with HOP-18 NSCLC, 65.6 µM; with DMS 114 small cell lung it was more than 59.2 µM; with XF 498 CNS it was 39.9 µM; with DMS 273 small cell lung it was 35.4 µM; in the test with KM20L2 colon it was 33.3 µM. In the test on M19-MEL melanoma, this molecule showed a TGI of more than 59 µM.
For the molecule `O=C(/C=C/c1ccccc1)/C=C/c1ccccc1`, the TGI is 50.1 µM in the test with LXFL 529 NSCLC; 92.8 µM in the test on HOP-18 NSCLC; 52.9 µM with DMS 114 small cell lung; more than 100 µM with DMS 273 small cell lung; 52.5 µM with KM20L2 colon; more than 100 µM with RXF-631 renal. This molecule also gave a TGI with M19-MEL melanoma of 50.2 µM.
As to `CCCCCCCCCc1cc(=O)c2c(O)cccc2o1`, the TGI in the test with LXFL 529 NSCLC, in the test on HOP-18 NSCLC, in the test on DMS 114 small cell lung, with XF 498 CNS, in the test on DMS 273 small cell lung and with RXF-631 renal was more than 100 µM each time. The TGI with M19-MEL melanoma was more than 10 µM.
Consider `O=C(O)Cc1c(O)ccc2ccccc12`, for which the TGI in the test on MDA-N is more than 100 µM.
Take `CN=NN(C)C(=O)NC`: the TGI in the test with LXFL 529 NSCLC, with HOP-18 NSCLC, in the test on DMS 114 small cell lung, with KM20L2 colon and in the test on M19-MEL melanoma was more than 100 µM throughout.
Regarding `CCOC(=O)c1[nH]c(COC(C)=O)c(CCCOC(C)=O)c1CCCOC(C)=O`, the TGI in the test with LXFL 529 NSCLC, in the test with XF 498 CNS, with DMS 273 small cell lung and in the test with KM20L2 colon was more than 100 µM each time.
On to `O=C(O)c1cccc(OCCO)c1`, for which the TGI in the test with MDA-N is more than 100 µM.
Consider `O=C(O)c1ccccc1-c1ccccc1C(=O)Nc1ccc2c(c1)Cc1cc(F)ccc1-2`, for which, in the test with MDA-N, the TGI amounted to 75.5 µM.
In the case of `Cc1cc(C)n(CCNCCn2nc(C)cc2C)n1`, the TGI in the test on LXFL 529 NSCLC was more than 100 µM; with DMS 114 small cell lung, more than 100 µM; with XF 498 CNS, more than 1 µM; with DMS 273 small cell lung, more than 100 µM; in the test with KM20L2 colon it was more than 100 µM; with M19-MEL melanoma, more than 100 µM.
On to `N#CC(C(=O)/C(=N/Nc1nc(=S)[nH]n1N)C(C#N)c1ccccc1)c1ccccc1` (stereo not drawn), for which the TGI in the test on LXFL 529 NSCLC, in the test with HOP-18 NSCLC, in the test on DMS 114 small cell lung, in the test on XF 498 CNS, in the test on DMS 273 small cell lung and in the test with KM20L2 colon was more than 100 µM each time. Further, the TGI with RXF-631 renal and in the test on M19-MEL melanoma was more than 100 µM in each case.
In the test on MDA-N, `O=C(O)c1c(-c2nccc3ccccc23)[nH]c(-c2ccccc2)c1S(=O)(=O)O` displayed a TGI of more than 100 µM.
Consider `O=C(CCC/C(CC(=O)c1ccc(Br)cc1)=N\O)Nc1ccccc1`, for which the TGI with LXFL 529 NSCLC, with HOP-18 NSCLC, in the test with DMS 114 small cell lung, with XF 498 CNS, in the test with KM20L2 colon and with M19-MEL melanoma was more than 100 µM in each case.
As for `CC(C)(C)N1CC2(CCCCC2)C1=O`, the TGI in the test with HOP-18 NSCLC, in the test with DMS 114 small cell lung, with DMS 273 small cell lung, in the test with KM20L2 colon and in the test on M19-MEL melanoma was more than 100 µM each time.
Turning to `CC(=O)OCC1OC([S-])C(OC(C)=O)C(OC(C)=O)C1OC(C)=O.CC[PH+](CC)CC.CC[PH+](CC)CC.[Au].[Au]` (stereo not drawn), the GI50 in the test on LXFL 529 NSCLC was 0.153 µM; with HOP-18 NSCLC, 0.253 µM; in the test with XF 498 CNS it was 0.181 µM; in the test on DMS 273 small cell lung, 0.453 µM; in the test on KM20L2 colon, 0.792 µM. Further, the TGI worked out at 0.322 µM with LXFL 529 NSCLC; 0.694 µM in the test with HOP-18 NSCLC; 0.449 µM with XF 498 CNS; 2.11 µM in the test with DMS 273 small cell lung; 2.2 µM in the test with KM20L2 colon; 0.806 µM in the test on M19-MEL melanoma.
`CCOC(=O)CCc1c(C)c2c(OC(C)=O)cc(OC(C)=O)cc2oc1=O`: the TGI in the test with LXFL 529 NSCLC is more than 100 µM; with HOP-18 NSCLC it was more than 100 µM; in the test on DMS 114 small cell lung, 70.8 µM; in the test with DMS 273 small cell lung, more than 100 µM; in the test with KM20L2 colon, more than 100 µM; with M19-MEL melanoma, more than 100 µM.
Turning to `O/N=C\c1c(O)ccc2ccccc12`, the TGI with MDA-N is more than 100 µM.
In the test with MDA-N, `CCCS(=O)(=O)Nc1ccc(Nc2c3ccccc3nc3ccccc23)c(OC)c1` registered a TGI of 20.2 µM.
As to `N#CC(/C(=N/NC(=O)C(=O)NN)C(=O)NC12CC3CC(CC(C3)C1)C2)c1ccccc1` (stereo not drawn), the TGI in the test on LXFL 529 NSCLC, with HOP-18 NSCLC, with DMS 114 small cell lung, in the test with DMS 273 small cell lung, in the test with KM20L2 colon and in the test with RXF-631 renal was more than 100 µM each time. The same molecule gave a TGI in the test on M19-MEL melanoma of more than 100 µM.
In the case of `O=C(CCC(=O)Nc1cccc(Cl)c1)CC(=O)c1ccc(Cl)cc1`, the TGI in the test on LXFL 529 NSCLC, with XF 498 CNS, with DMS 273 small cell lung, in the test on KM20L2 colon and in the test with RXF-631 renal was more than 100 µM each time.
For `O=C(CN1CCCCC1)N1CCc2c([nH]c3ccccc23)C1c1cccnc1` (stereo not drawn), the TGI in the test with LXFL 529 NSCLC, with HOP-18 NSCLC, in the test on DMS 114 small cell lung, with XF 498 CNS, with DMS 273 small cell lung and in the test with KM20L2 colon was more than 100 µM in each case. Further, the TGI in the test with RXF-631 renal and in the test with M19-MEL melanoma was more than 100 µM throughout.
Consider `O=C(/C=C/c1c(O)ccc2ccccc12)c1ccc2ccccc2c1`, for which the TGI was more than 100 µM with DMS 114 small cell lung, more than 100 µM with DMS 273 small cell lung, more than 100 µM with KM20L2 colon and 35.9 µM with M19-MEL melanoma.
As for `NC1CCCC[C@H]1N.N[C@@H]1CCCC[C@@H]1N.O=C(P(=O)([O-])[O-])P(=O)([O-])[O-].[Pt+4].[Pt+4]`, the GI50 with LXFL 529 NSCLC is more than 100 µM; in the test on HOP-18 NSCLC it was 59.6 µM; in the test with DMS 273 small cell lung, 32.3 µM; in the test with KM20L2 colon, more than 100 µM; with M19-MEL melanoma it was 73 µM. The TGI with LXFL 529 NSCLC, in the test with HOP-18 NSCLC, with DMS 273 small cell lung, in the test on KM20L2 colon and in the test with M19-MEL melanoma was more than 100 µM in each case.
In the test with MDA-N, `COc1cc2c(cc1OC)C13CCN4CC5=CCOC6CC(=O)N2C1C6C5CC43O` (stereo not drawn) returned a TGI of more than 100 µM.
In the case of `O=C(O)c1cc(O)c2c(c1)C(C1c3cc(C(=O)O)cc(O)c3C(=O)c3c(OC4OC(CO)C(O)C(O)C4O)cccc31)c1cccc(OC3OC(CO)C(O)C(O)C3O)c1C2=O` (stereo not drawn), in the test on MDA-N, the GI50 is more than 100 µM and the TGI is more than 100 µM.
In the case of `N#CC1(C2SCCS2=O)C2=C(C(=O)c3ccccc3C2=O)N2CCCC21` (stereo not drawn), the TGI in the test on LXFL 529 NSCLC was 8.06 µM; in the test on MDA-N, 1.55 µM; in the test on HOP-18 NSCLC, 8.16 µM; in the test on DMS 114 small cell lung, 6 µM; in the test with XF 498 CNS, 8.15 µM; in the test on DMS 273 small cell lung, 12.2 µM. In addition, the TGI with KM20L2 colon was found to be 19.3 µM; in the test on RXF-631 renal, 5.3 µM; in the test on M19-MEL melanoma, 0.788 µM.
`CCOC(=O)[C@H](CCCNC(=O)OC(C)(C)C)NCc1ccc(OC)c(OC)c1`: the TGI in the test on LXFL 529 NSCLC, with HOP-18 NSCLC, in the test with DMS 114 small cell lung, in the test with XF 498 CNS, with DMS 273 small cell lung and with KM20L2 colon was more than 100 µM in each case. The TGI with RXF-631 renal and with M19-MEL melanoma was more than 100 µM each time.
With `O=S(O)CCCCSSCc1ccccc1CSSCCCCS(=O)O`, the TGI with LXFL 529 NSCLC is 24.8 µM; in the test on HOP-18 NSCLC it was more than 100 µM; in the test with DMS 114 small cell lung, 35.2 µM; with XF 498 CNS it was 25.5 µM; in the test on DMS 273 small cell lung it was more than 100 µM; in the test on KM20L2 colon, more than 100 µM. The TGI was more than 100 µM with RXF-631 renal and 21.2 µM with M19-MEL melanoma.
Turning to `O=C(CSc1nnc(-c2ccccc2NC(=O)C(F)(F)F)c(=O)[nH]1)NC(=O)Nc1ccccc1`, the TGI with LXFL 529 NSCLC, in the test on XF 498 CNS, with DMS 273 small cell lung and in the test with M19-MEL melanoma was more than 100 µM in each case.
With `NC(N)=N/N=C/c1cc(Cl)cc(Cl)c1O`, in the test with MDA-N, the TGI is more than 100 µM.

The record behind these values is PubChem BioAssay (NCI).
